Results reported in patent publication US20100267626A1, “METHODS AND COMPOSITIONS FOR MEASURING WNT ACTIVATION AND FOR TREATING WNT-RELATED CANCERS” (Novartis AG, priority 2007, published 2010).
Blank lines part the entries; values can stand above or below the compound they belong to. Peptide text beside a SMILES is read from it. * marks the point of attachment. Cbz = O=C(OCc1ccccc1)*

How the values were obtained:
[1] = test system: Wnt3A stimulated STF activity; assay: Wnt-responsive Super-Topflash (STF) luciferase reporter assay in HEK293 cells; type: cell-based
Excerpt: The corresponding reporter activity for each compound dilution was normalized to DMSO and expressed as a percentage of the reporter activity in DMSO.
To identify small molecule inhibitors of the Wnt/β-catenin pathway, a high-throughput compound screen was employed, with over one million compounds, using a Wnt-responsive Super-Topflash (STF) luciferase reporter assay in HEK293 cells.

[2] = test system: DLD-1 cells; assay: Colony formation assay, DLD-1 cells; type: cell-based; settings: low serum growth conditions
Experimental: FIG. 6A. […] DLD1 and RKO cells were seeded at […] in a 6-well plate in medium containing 0.5% serum and indicated compounds, and replenished with fresh medium every two days. Colonies were visualized by crystal violet staining.
FIG. 6B. […] DLD1 cells were transfected with siRNAs against Axin1 and Axin2, and seeded at 1000 cells/well in a 6-well plate. The compound treatment was carried out as described in 6A.
(§1) The colony formation assay was performed as follows: DLD1 and RKO cells were seeded in low serum growth medium (0.5% FBS) at 500 and 1000 cells/well, respectively, into […]. Sixteen hours after plating, compounds were added at the indicated concentrations. Medium was replenished every two days until colony formation was observed. Colonies were stained by a solution of 2 mg/ml crystal violet in buffered formalin and imaged on a Molecular Imager ChemiDoc XRS System (BioRad).

[3] = test system: TNKS; settings: doses 1 nM to 100 μM
[4] = biological target: C-terminal PARP domain of TNKS2 (GST-TNKS2 PARP) (Homo sapiens, UniProt Q9H2K2); assay: In vitro auto-PARsylation assay of TNKS2
Excerpt: Tankyrase, utilizing NAD^+, catalyzes poly(ADP-ribosyl)ation of itself (autoparsylation) or targeted proteins (substrate parsylations). In each reaction turnover, the enzyme consumes one unit of NAD^+, add one unit of ADP-ribose to the polymer chain, releases one unit of nicotinamide. The autoparsylation activity assay is designed to monitor the nicotinamide formation and the reduction in the nicotinamide formation in the presence of tankyrase small molecule inhibitors. The quantification of nicotinamide is carried out by liquid chromatography/mass spectrometry (LC/MS).
Prior to LC/MS analysis, the protein in the reaction mixture was removed by precipitation/centrifugation method after added two aliquots of acetonitrile.

[5] = test system: PARP1/2; assay: Dose response compound competition experiment (immunoblot); settings: doses 1 nM to 100 μM
[6] = test system: Axin1 and Axin2; assay: Axin ubiquitination in SW480 cells (immunoprecipitation/immunoblot); type: cell-based, human
Excerpt: The position that Axin1 migrates is labeled with an arrow.
FIG. 5E. […] (IP: immunoprecipitation, TCL: total cell lysates)

[7] = test system: CRE luciferase reporter; assay: CRE luciferase reporter in HEK293 cells (Forskolin activated); type: cell-based
[8] = test system: NF-κB luciferase reporter; assay: NF-κB luciferase reporter in HEK293 cells (TNFα activated); type: cell-based
[9] = test system: TGFβ luciferase reporter; assay: TGFβ (CAGA12) luciferase reporter in HEK293 cells; type: cell-based
[10] = test system: β-catenin; assay: Immunoblot of cytosolic β-catenin in Wnt3A stimulated HEK293 cells; type: cell-based
Experimental: Cell lysates were fractionated and immunoblotted for cytosolic β-catenin.
To generate cytosolic lysates, cells were scraped into hypotonic buffer (10 mM Tris-HCl pH7.5, 10 mM KCl), and cell lysates were cleared by centrifugation after four freeze-thaw cycles. In all above experiments, 1× protease inhibitor cocktail (Sigma) and 1× phosphatase inhibitor cocktail (Upstate) were added into lysis buffers.

[11] = test system: β-catenin; assay: Immunoblot of β-catenin and phospho-β-catenin in SW480 cells; type: cell-based, human
Experimental: To generate cytosolic lysates, cells were scraped into hypotonic buffer (10 mM Tris-HCl pH7.5, 10 mM KCl), and cell lysates were cleared by centrifugation after four freeze-thaw cycles. In all above experiments, 1× protease inhibitor cocktail (Sigma) and 1× phosphatase inhibitor cocktail (Upstate) were added into lysis buffers. Commercial antibodies used in this study include goat anti-Axin1 antibodies (R&D Systems), rabbit anti-Axin2 antibodies and rabbit anti-phospho-β-catenin (pSer33/37/Thr41) antibodies (Cell Signaling Technology), mouse anti-TNKS antibodies (Abeam), mouse anti-HA (HA.11) antibodies (Covance), mouse anti-β-catenin antibodies, rabbit anti-Poly(ADP-ribose) antibodies, and rabbit anti-PARP1 antibodies (BD Pharmingen), mouse anti-ubiquitin antibody (MBL), rabbit anti-GFP antibodies (Clontech), mouse anti-tubulin and mouse anti-Flag (M2) antibodies (Sigma).

[12] = test system: Axin1 and Axin2; assay: Immunoblot of Axin protein levels after compound treatment; type: cell-based, human; settings: after XAV939 treatment
[13] = biological target: PARP2 (Homo sapiens, UniProt Q9UGN5); assay: iTRAQ quantitative chemical proteomics competition, HEK293 cell lysates; type: binding; settings: 20 μM soluble compound, relative to DMSO
Experimental: By using iTRAQ, a chemical peptide labeling technique, the 3 samples were multiplexed and quantified binding displacement (% competition) relative to the vehicle (DMSO) by LC-MS/MS analysis.
Sequencing was performed by liquid chromatography-tandem mass spectrometry on a LTQ-Orbitrap mass spectrometer (Thermo-Finnigan). Tandem mass spectra were generated using pulsed-Q dissociation, enabling detection of iTRAQ reporter ions. Peptide mass and fragmentation data were used to query an in-house curated version of the IPI database using Mascot (Matrix Science). Protein identifications were validated using a decoy database. iTRAQ reporter ion-based quantification was performed with in-house developed software.
Lysate was pre-cleared by centrifugation and protein concentration measured by Bradford assay. […] Then 100 μl of negative control-matrix was added and incubation resumed at 4° C. for another 60 min. After centrifugation, beads were transferred into a column (MoBiTech) and washed.

[14] = test system: GFP-Axin1; assay: GFP-Axin1 fusion construct protein levels in SW480 cell lines; type: cell-based, mouse
Excerpt: FIG. 4E. The TNKS binding domain is required for XAV939-induced Axin1 protein accumulation. […] Total cell lysates were harvested and analyzed by immunoblotting.
(§2) The SuperTopFlash (STF) methods described in at least Example 1 employed plasmids manufactured as follows: SuperTopflash reporter was generated by inserting twelve TCF binding sites into pTA-Luc (Clontech). Mouse Axin1 and its mutants were fused with either GFP or FLAG epitope at the amino termini and cloned into a retroviral vector under the control of the metallothionein promoter. Human TNKS1/2 and their mutants were tagged with FLAG epitope fused at the amino termini and cloned into a mammalian expression vector under the control of the cytomegalovirus (CMV) promoter. Drosophila Axin fused with three HA epitopes at the carboxyl terminus was cloned in a Drosophila expression vector under the control of the metallothionein promoter. A sequence encoding the amino terminal fragment of mouse Axin1 (a.a. 1-87) was cloned in a Tet-regulated expression vector pcDNA4-TO (Invitrogen). Several proteins were cloned using Gateway technology (Invitrogen) into the expression vector pDEST15 (Invitrogen, Carlsbad, Calif.): TNKS1-P(1088-1327), TNKS2-P(934-1166), TNKS2-SP (872-1166), PARP1-P (662-1014) and PARP16-P (93-273).
The functional consequences of disrupting the physical interaction between Axin and TNKS were assessed. […]. […] […].

[15] = test system: GFP-Axin; assay: PARsylation of exogenously expressed GFP-Axin in cells; type: cell-based, mouse; settings: anti-PAR antibody
Experimental: FIG. 5D. In vivo PARsylation of Axin1. SW480 cells stably expressing GFP-Axin1 under control of the metallothionein promoter were incubated with Cu^2+ overnight to induce expression of GFP-Axin1. […] Lysates were harvested with RIPA buffer containing PARG inhibitor ADP-HPD (5 μM) and PARP1 inhibitor PJ34 (80 μM), immunoprecipitated with GFP antibody and analyzed by immunoblotting.
as §2, with “Several proteins were cloned using Gateway technology (Invitrogen) into the expression vector pDEST15 (Invitrogen, Carlsbad, Calif.): TNKS1-P(1088-1327), TNKS2-P(934-1166), TNKS2-SP (872-1166), PARP1-P (662-1014) and PARP16-P (93-273).” left out

[16] = test system: RKO cells; assay: Colony formation assay, RKO cells; type: cell-based; settings: low serum growth conditions, β-catenin independent cells
Experimental: […]. DLD1 and RKO cells were seeded at 500 cells/well in a 6-well plate in medium containing 0.5% serum and indicated compounds, and replenished with fresh medium every two days. Colonies were visualized by crystal violet staining.
as §1

[17] = test system: cell lines used in this study; assay: Mitotic arrest phenotype in cell lines; type: cell-based; settings: low or high serum conditions
Excerpt: TNKS1/TNKS2 have been described to regulate mitotic progression, telomere maintenance, and GLUT4 transport. (Canudas, S., et al. (2007) Embo J 26, 4867-78 (2007); Seimiya, H., et al. (2002) J Biol Chem 277, 14116-26) In particular, TNKS1 was proposed to be required for the resolution of sister telomere association or assembly of bipolar spindles, and TNKS1 knockdown was reported to cause strong mitotic arrest.

[18] = test system: Axin-GSK3β complex; assay: Axin-GSK3β complex formation
Experimental: Total cell lysates were prepared by cell lysis in RIPA buffer (50 mM Tris-HCl, pH 7.4, 150 mM NaCl, 1% NP-40, 0.5% sodium deoxycholate, 0.1% SDS, 1 mM EDTA). Equal amount of proteins were resolved by SDS-PAGE, transferred to nitrocellulose membranes and probed with indicated antibodies. For co-immunoprecipitation experiments, cells were lysed in EBC buffer (50 mM Tris-HCl, pH 7.4, 150 mM NaCl, 0.5% NP-40, 1 mM EDTA), cleared cell lysates were incubated with indicated antibodies and Protein G-sepharose beads overnight at 4° C. The beads were washed five times with lysis buffer. The bound proteins were dissolved in SDS sample buffer, resolved by SDS-PAGE, and blotted with indicated antibodies.

[19] = test system: Axin1 and Axin2 transcript; assay: Axin transcript levels (quantitative RT-PCR); settings: after compound treatment
Experimental: Total RNA from compound or siRNA treated cells was extracted using the RNeasy Mini Kit (Qiagen) and reverse transcribed with Taqman Reverse Transcription Reagents (Applied Biosystems) according to the manufacturer's instructions. Transcript levels were assessed using the ABI PRISM 7900HT Sequence Detection System. […] The thermocycling conditions utilized were 2 min at 50° C., 10 min at 95° C., followed by 40 cycles of 15 sec at 95° C. and 1 min at 60° C. All experiments were performed in triplicate. Gene expression analysis was performed using the comparative CT method with the housekeeping gene, GUSB, for normalization.

[20] = test system: Axin2; assay: PARsylation of endogenous Axin2 in compound wash-off experiment; settings: MG132 plus XAV939
Experimental: Post-translational modification of Axin2 in a compound wash-off experiment. […] Cell lysates were harvested with RIPA buffer, immunoprecipitated with anti-Axin2 antibody, and analyzed by immunoblotting.
Total cell lysates were prepared by cell lysis in RIPA buffer (50 mM Tris-HCl, pH 7.4, 150 mM NaCl, 1% NP-40, 0.5% sodium deoxycholate, 0.1% SDS, 1 mM EDTA). Equal amount of proteins were resolved by SDS-PAGE, transferred to nitrocellulose membranes and probed with indicated antibodies. For co-immunoprecipitation experiments, cells were lysed in EBC buffer (50 mM Tris-HCl, pH 7.4, 150 mM NaCl, 0.5% NP-40, 1 mM EDTA), cleared cell lysates were incubated with indicated antibodies and Protein G-sepharose beads overnight at 4° C. The beads were washed five times with lysis buffer. The bound proteins were dissolved in SDS sample buffer, resolved by SDS-PAGE, and blotted with indicated antibodies. To detect protein ubiquitination and PARsylation in vivo, cells were lysed with RIPA buffer supplemented with 5 mM NEM and 5 μM ADP-HPD to block the activities of Deubiquitinase and PARG, and followed by immunoprecipitation with indicated antibodies.

[21] = wash-off experiment, MG132 alone

Chain of PARP2 (Q9UGN5 whole entry, the tested form may be a part): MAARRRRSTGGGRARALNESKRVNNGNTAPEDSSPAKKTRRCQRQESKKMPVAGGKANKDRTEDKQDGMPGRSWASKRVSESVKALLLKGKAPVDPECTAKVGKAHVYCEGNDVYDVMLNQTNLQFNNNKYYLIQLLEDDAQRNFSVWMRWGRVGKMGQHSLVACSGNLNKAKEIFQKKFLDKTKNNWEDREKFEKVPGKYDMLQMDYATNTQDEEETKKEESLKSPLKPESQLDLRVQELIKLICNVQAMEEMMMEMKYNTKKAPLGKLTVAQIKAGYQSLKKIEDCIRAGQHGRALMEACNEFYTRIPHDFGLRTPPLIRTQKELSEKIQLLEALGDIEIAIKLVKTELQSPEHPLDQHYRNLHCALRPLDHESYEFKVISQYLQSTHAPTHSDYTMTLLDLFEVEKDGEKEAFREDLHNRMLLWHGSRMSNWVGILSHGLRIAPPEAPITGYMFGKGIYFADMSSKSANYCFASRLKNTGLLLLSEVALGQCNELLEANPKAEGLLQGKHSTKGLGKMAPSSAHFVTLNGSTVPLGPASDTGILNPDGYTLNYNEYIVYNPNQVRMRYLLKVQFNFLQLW
Chain of C-terminal PARP domain of TNKS2 (GST-TNKS2 PARP) (Q9H2K2 934-1166): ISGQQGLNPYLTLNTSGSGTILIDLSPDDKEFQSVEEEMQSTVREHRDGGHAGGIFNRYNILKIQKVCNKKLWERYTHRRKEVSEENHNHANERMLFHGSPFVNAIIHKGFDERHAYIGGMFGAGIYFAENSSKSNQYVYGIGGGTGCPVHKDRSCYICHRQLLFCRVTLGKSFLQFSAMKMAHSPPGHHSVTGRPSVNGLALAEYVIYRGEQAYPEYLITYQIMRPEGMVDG

SMILES: CC(=O)N1CCc2nc(-c3ccc(C(F)(F)F)cc3)[nH]c(=O)c2C1 [LDW643]
Wnt3A stimulated STF activity [1]: no activity | colony formation of DLD-1 cells [2]: did not affect | activity in compound competition, TNKS binding [3]: no activity | auto-PARsylation of GST-TNKS2 PARP [4]: not affected | activity in compound competition, PARP1/2 binding [5]: no activity

SMILES: CC(C)C[C@@H](C=O)NC(=O)[C@H](CC(C)C)NC(=O)[C@H](CC(C)C)NC(=O)OCc1ccccc1 [MG132] (Cbz-Leu-Leu-Leu-aldehyde)
poly-ubiquitination of Axin1 ([6]; MG132 alone): increased significantly | Axin2 degradation after XAV939 wash-off [6, 21]: blocked | Axin2 poly-ubiquitination after XAV939 wash-off [6, 21]: strongly increased

binding displacement (% competition) PARP2 [13]: 88%
SMILES: Oc1nc(-c2ccc(C(F)(F)F)cc2)nc2c1CSCC2 [XAV939]
effect on CRE luciferase reporter [7]: did not affect | effect on NF-κB luciferase reporter [8]: did not affect | effect on TGFβ luciferase reporter [9]: did not affect | Wnt3A-induced accumulation of β-catenin [10]: block | β-catenin abundance [11]: decreased | β-catenin phosphorylation (S33/S37/T41) [11]: significantly increased | protein levels of Axin1 and Axin2 [12]: strongly increased | GFP-Axin1Δ19-30 protein levels ([14]; cells expressing GFP-Axin1Δ19-30 (TBD deleted)): did not further respond | wild-type GFP-Axin1 protein levels ([14]; cells expressing wild-type GFP-Axin1): strongly increased | Axin1 and Axin2 poly-ubiquitination ([6]; co-treatment of XAV939 with MG132): significantly diminished | ubiquitination of Axin2 ([6]; wash-off experiment, co-treatment with XAV939 and MG132): completely blocked | PARsylation signal of GFP-Axin in cells [15]: strongly reduced | colony formation of DLD-1 cells [2]: significantly inhibited | colony formation in RKO cells [16]: did not affect | mitotic arrest phenotype [17]: did not result in any overt mitotic arrest phenotype | Axin-GSK3β complex formation [18]: strong increase | transcript levels of Axin1 and Axin2 [19]: unaffected | anti-PAR antibody reactive signal co-migrating with Axin2 [20]: disappeared
